Experimental data published in the NIST ThermoML archive (doi:10.1016/j.fluid.2011.08.011).
Values joined by “and” are separate entries in the source; they are usually repeats but may differ in a detail not shown here. Equal entries are not always repeated.

Legend:
[1] = Liquid, Closed cell (Static) method
[2] = Solid-liquid equilibrium temperature; conditions: 101.3 kPa; Crystal; DTA
[3] = molar heat capacity at constant pressure; conditions: 101.33 kPa, Liquid, Small sample (50 mg) DSC
[4] = Molar enthalpy of transition or fusion; conditions: Crystal; DSC

CC(C)(C)[O-].CC(C)(C)[O-].CC(C)(C)[O-].CC(C)(C)[O-].[Hf+4] [hafnium(IV) 2-methylpropan-2-olate]
Conditions | molar heat capacity at constant pressure | vapor or sublimation pressure
[1], 280.65 K | – | 0.00169 kPa and 0.00172 kPa and 0.00174 kPa
[1], 283.15 K | – | 0.00214 kPa and 0.00217 kPa and 0.00219 kPa
[1], 285.65 K | – | 0.00279 kPa and 0.00282 kPa and 0.00284 kPa
[1], 288.15 K | – | 0.00362 kPa and 0.00364 kPa and 0.00361 kPa
[1], 290.65 K | – | 0.00443 kPa and 0.00442 kPa and 0.00444 kPa
[1], 293.15 K | – | 0.00563 kPa and 0.00565 kPa and 0.00564 kPa
[1], 295.65 K | – | 0.00722 kPa and 0.0072 kPa
[1], 298.15 K | – | 0.00874 kPa and 0.00873 kPa
[1], 300.65 K | – | 0.01111 kPa and 0.01107 kPa and 0.01104 kPa
[1], 303.15 K | – | 0.01348 kPa and 0.01346 kPa
[1], 305.67 K | – | 0.01669 kPa and 0.01664 kPa and 0.0166 kPa
[1], 308.17 K | – | 0.02071 kPa and 0.02061 kPa and 0.02059 kPa
[3], 293.83 K | 596.3 J/K/mol and 598.5 J/K/mol | –
[3], 298.94 K | 598.9 J/K/mol and 598.2 J/K/mol | –
[3], 304.04 K | 601.3 J/K/mol and 601.8 J/K/mol | –
[3], 309.15 K | 604.8 J/K/mol and 600.7 J/K/mol | –
[3], 314.25 K | 604.8 J/K/mol and 602.9 J/K/mol | –
[3], 319.35 K | 612.6 J/K/mol and 614.6 J/K/mol | –
[3], 324.46 K | 614.2 J/K/mol and 613.8 J/K/mol | –
[3], 329.56 K | 616.6 J/K/mol and 621.7 J/K/mol | –
[3], 334.66 K | 626.3 J/K/mol and 625.9 J/K/mol | –
[3], 339.77 K | 631.5 J/K/mol and 628.5 J/K/mol | –
[3], 344.88 K | 635.3 J/K/mol and 638.1 J/K/mol | –
[3], 349.98 K | 635.5 J/K/mol and 635.9 J/K/mol | –

Conditions | Molar enthalpy of transition or fusion [kcal/mol] | Solid-liquid equilibrium temperature
[2] | – | 271.9 K and 271.8 K and 271.7 K
[4] | 7.72 | –
